According to patent publication EP1044978A2, “1-N-alkyl-5'-[(N'-(un)substituted)amido]spiroindolinonaphthoxazines, their preparation, compositions and (co)polymer matrices containing them” (Corning S.A., priority 1999, dated 2000):

Test: Photochromic properties of lens samples (2 mm, compound in matrix I or II) exposed to UV radiation from a xenon lamp
Type: physicochemical
Details: lens sample
Excerpt: The matrix used in accordance with the present invention may be one of two types :
A homopolymer of the monomer DIACRYL 121 (D121 : tetraethoxylated Bisphenol A dimethylmethacrylate), marketed by Akzo Nobel; or
A copolymer comprised of a 50/50 mixture by weight of D121 (as above) and polyethylene glycol dimethacrylate (Molecular weight = 400) (PEGDMA 400).
10^-5 moles of at least one compound of the invention, together with 0.2% by weight of AMBN (2,2'-azobis(2-methylbutyronitrile)) provided by Akzo, are added to 10 g of formulations able to generate cross-linked matrix I or II. The formulations thus prepared are then poured into a lens mould of 2 mm thickness and then cured by heating at 60°C for 6 hours, followed by heating at 80°C for 2 hours to give a lens sample.
The photochromic properties of the lens samples thus obtained were then evaluated as follows :
Said lens sample, containing said photochromic compounds in its mass, is exposed to a UV radiation (source: xenon lamp).
Bleu D: 1,3-dihydro-1,3,3,5,6-pentamethylspiro[2H-indole-2'3'-[3H]-naphth-[2,1-b][1,4]oxazine] supplied by Great Lakes. T0 : the transmission before exposure to UV TD15 : the transmission after 15 minutes' exposure to UV OID : optical induced density (D∞-D0) [D∞ is the density after exposure, D0 the density before exposure] t1/2 : time of half-darkness which characterises the kinetics of the return to the initial state when at the equilibrium the exposure is cut off. λmax : the maximum absorption in the visible spectrum after UV irradiation.

[1] = Matrix I (homopolymer of DIACRYL 121)
[2] = Matrix II (50/50 D121 / PEGDMA 400 copolymer)

Compound | OID (optical induced density, D∞-D0) [1] | T0 (the transmission before exposure to UV) [1] [%] | λmax (the maximum absorption in the visible spectrum after UV irradiation) [1] [nm] | OID (optical induced density, D∞-D0) [2] | T0 (the transmission before exposure to UV) [2] [%] | λmax (the maximum absorption in the visible spectrum after UV irradiation) [2] [nm] | TD15 (the transmission after 15 minutes' exposure to UV) [1] [%] | TD15 (the transmission after 15 minutes' exposure to UV) [2] [%]
CN1c2ccccc2C(C)(C)C12C=Nc1c(ccc3ccccc13)O2 (stereo not shown) [Control I, 1,3-dihydro-1,3,3-trimethylspiro[2H-indole-2,3'-[3H]-naphth[2,1-b][1,4]oxazine], reference compound] | 0.142 | 90.9 | 607 | 0.140 | 90.5 | 610 | 65.6 | 65.5
1,3-dihydro-1,3,3,4(5),5(6)-pentamethyl-5'-piperidinocarbonyl-spiro[2H]-indole-2,3'-[3H]naphth[2,1-b][1,4]oxazine [Example 5] | 0.905 | 77.6 | 626 | 1.067 | 80.7 | 622 | 9.7 | 6.9
COc1ccc2c(c1)C(C)(C)C1(C=Nc3c(c(C(=O)N4CCCCC4)cc4ccccc34)O1)N2C (stereo not shown) [Example 6, 1,3-dihydro-5-methoxy-1,3,3-trimethyl-5'-piperidinocarbonylspiro[2H]-indole-2,3'-[3H]naphth[2,1-b][1,4]oxazine] |  |  |  | 0.858 | 81.9 | 634 |  | 11.3
Cc1cc2c(cc1C)C(C)(C)C1(C=Nc3c(ccc4ccccc34)O1)N2C (stereo not shown) [Control II, 1,3-dihydro-1,3,3,5,6-pentamethylspiro[2H-indole-2'3'-[3H]-naphth-[2,1-b][1,4]oxazine], reference compound] | 0.280 | 90.5 | 616 | 0.357 | 90.5 | 616 | 47.5 | 39.8
CN1c2ccccc2C(C)(C)C12C=Nc1c(c(C(=O)N3CCc4ccccc43)cc3ccccc13)O2 (stereo not shown) [Example 4, 1,3-dihydro-1,3,3-trimethyl-5'-indolinocarbonylspiro[2H-indole-2,3'-[3H]-naphtho[2,1-b][1,4]oxazine]] | 0.339 | 86.9 | 622 | 0.553 | 85.4 | 622 | 39.8 | 23.9
Cc1ccc(NC(=O)c2cc3ccccc3c3c2OC2(C=N3)N(C)c3ccccc3C2(C)C)cc1 (stereo not shown) [Example 3, 1,3-dihydro-1,3,3-trimethyl-5'-p-(tolylcarbamoyl)spiro[2H-indole-2,3'-[3H]-naphtho[2,1-b][1,4]oxazine]] | 0.707 | 75.5 | 634 |  |  |  | 14.8 | 

Now from value to compound, other results behind:

OID (optical induced density, D∞-D0) [1] | T0 (the transmission before exposure to UV) [1] [%] | λmax (the maximum absorption in the visible spectrum after UV irradiation) [1] [nm] | OID (optical induced density, D∞-D0) [2] | T0 (the transmission before exposure to UV) [2] [%] | λmax (the maximum absorption in the visible spectrum after UV irradiation) [2] [nm] | Compound | TD15 (the transmission after 15 minutes' exposure to UV) [1] [%] | TD15 (the transmission after 15 minutes' exposure to UV) [2] [%]
 |  |  | 0.324 | 88.9 | 620 | CN1c2ccccc2C(C)(C)C12C=Nc1c(c(C(=O)N3CCOCC3)cc3ccccc13)O2 (stereo not shown) [Example 1, 1,3-dihydro-1,3,3-trimethyl-5'-morpholinocarbonylspiro[2H-indole-2,3'-[3H]-naphtho[2,1-b][1,4]oxazine]] |  | 42.2
0.152 | 89.0 | 618 |  |  |  | CN1c2ccccc2C(C)(C)C12C=Nc1c(c(C(=O)N3CCCCC3)cc3ccccc13)O2 (stereo not shown) [Example 2, 1,3-dihydro-1,3,3-trimethyl-5'-piperidinocarbonylspiro[2H-indole-2,3'-[3H]-naphtho[2,1-b][1,4]oxazine]] | 62.6 | 
 |  |  | 0.437 | 86.9 | 622 | CC(C)CN1c2ccccc2C(C)(C)C12C=Nc1c(c(C(=O)N3CCCCC3)cc3ccccc13)O2 (stereo not shown) [Example 7, 1,3-dihydro-1-(2'-methylpropyl)-3,3-dimethyl-5'-piperidinocarbonylspiro[2H-indole-2,3'-[3H]-naphtho[2,1-b] [1,4]oxazine]] |  | 31.8
